The values below come from ChEMBL document CHEMBL3044537, “Radiolabeling of EGCG with 131I and biodistribution in rats” (Med Chem Res, 2012).

Each structure is given as a SMILES string.

For data set [1], the system named is Small intestine. Briefly: Biodistribution in Rattus norvegicus Wistar albino (rat) small intestine at 74 MBq/umol, iv measured at 60 min. Type of data set: ADME, organism-based. To be noted: in vivo, 1 h.
The nature of data set [2]: Metabolic stability in Homo sapiens (human) serum at 3 hr. Type of data set: ADME. To be noted: read-out: Stability.
The test system of data set [3] is Kidney. Put plainly: Biodistribution in Rattus norvegicus Wistar albino (rat) kidney at 74 MBq/umol, iv measured at 60 min. Particulars: in vivo, 1 h; call rule not given here. Type of data set: ADME, organism-based.
Data set [4] concerns Lung. Put plainly: Biodistribution in Rattus norvegicus Wistar albino (rat) lung at 74 MBq/umol, iv administered 60 min post dose of non radiolabelled compound measured at 150 min. Type of data set: ADME, organism-based. To be noted: in vivo, 2.5 h.
For another data set, the system named is Pancreas. Briefly: Biodistribution in Rattus norvegicus Wistar albino (rat) pancreas at 74 MBq/umol, iv measured at 30 min. Type of data set: ADME, organism-based. Particulars: in vivo, 0.5 h.
A short description of data set [5]: Biodistribution in Rattus norvegicus Wistar albino (rat) lung at 74 MBq/umol, iv administered 60 min post dose of non radiolabelled compound measured at 30 min. Type of data set: ADME, organism-based. To be noted: read-out: Drug uptake.
Data set [6] concerns Stomach. Put plainly: Biodistribution in Rattus norvegicus Wistar albino (rat) stomach at 74 MBq/umol, iv after 60 min. To be noted: in vivo, 1 h. It is filed as ADME, organism-based.
Data set [7] relates to Stomach. Briefly: Biodistribution in Rattus norvegicus Wistar albino (rat) stomach at 74 MBq/umol, iv measured at 60 min. Type of data set: ADME, organism-based. To be noted: in vivo, 1 h.
In data set [8] the test system is Large intestine. Put plainly: Biodistribution in Rattus norvegicus Wistar albino (rat) large intestine at 74 MBq/umol, iv measured at 60 min. Type of data set: ADME, organism-based. To be noted: in vivo, 1 h.
Data set [9] relates to Large intestine. Briefly: Biodistribution in Rattus norvegicus Wistar albino (rat) large intestine at 74 MBq/umol, iv after 60 min. Type of data set: ADME, organism-based. To be noted: in vivo, 1 h.
Data set [10] concerns Liver. Briefly: Biodistribution in Rattus norvegicus Wistar albino (rat) liver at 74 MBq/umol, iv measured at 60 min. Particulars: in vivo, 1 h. It is filed as ADME, organism-based.
The nature of data set [11]: Metabolic stability in Homo sapiens (human) serum at 4 hr. Type of data set: ADME. To be noted: read-out: Stability.
In another data set the test system is Rattus norvegicus. Put plainly: Ratio of drug uptake in Rattus norvegicus Wistar albino (rat) lung to muscle at 74 MBq/umol, iv measured at 30 min. To be noted: in vivo, 0.5 h.
In data set [12] the test system is Liver. Put plainly: Biodistribution in Rattus norvegicus Wistar albino (rat) liver at 74 MBq/umol, iv after 60 min. Type of data set: ADME, organism-based. Particulars: in vivo, 1 h.
Data set [13] in a line: Octanol-water partition coefficient of the compound. It is filed as physicochemical. To be noted: read-out: log KOW.
Data set [14] in a line: Ratio of drug uptake in Rattus norvegicus Wistar albino (rat) lung to blood at 74 MBq/umol, iv measured at 30 min. It is filed as ADME, organism-based.
Data set [15] in a line: Metabolic stability in Homo sapiens (human) serum at 24 hr. Particulars: read-out: Stability. It is filed as ADME.
Data set [16] has as its system Kidney. Put plainly: Biodistribution in Rattus norvegicus Wistar albino (rat) kidney at 74 MBq/umol, iv after 60 min. To be noted: in vivo, 1 h. Type of data set: ADME, organism-based.
The nature of data set [17]: Biodistribution in Rattus norvegicus Wistar albino (rat) lung at 74 MBq/umol, iv administered 60 min post dose of non radiolabelled compound measured at 60 min. Type of data set: ADME, organism-based. Particulars: read-out: Drug uptake.
Data set [18] in a line: Metabolic stability in Homo sapiens (human) serum at 2 hr. Type of data set: ADME. To be noted: read-out: Stability.
Data set [19] has as its system Small intestine. Put plainly: Biodistribution in Rattus norvegicus Wistar albino (rat) small intestine at 74 MBq/umol, iv after 60 min. Type of data set: ADME, organism-based. Particulars: in vivo, 1 h.
Data set [20] concerns Lung. Briefly: Biodistribution in Rattus norvegicus Wistar albino (rat) lung at 74 MBq/umol, iv measured at 30 min. Particulars: in vivo, 0.5 h. Type of data set: ADME, organism-based.

The Kp is the ratio of the level in a tissue or fluid to that in plasma or blood. Take `O=C(O[C@@H]1Cc2c(cc(O)c([131I])c2O)O[C@@H]1c1cc(O)c(O)c(O)c1)c1cc(O)c(O)c(O)c1` [[131I]-EPIGALLOCATECHIN GALLATE]: the Drug uptake is 0.71 % ID/g in the data set with Small intestine [1]; 0.37 % ID/g in the data set on Kidney [3]; 0.22 % ID/g with Lung [4]; 0.32 % ID/g in the data set on Pancreas; “Not Active” with Stomach [6]; 2.76 % ID/g in the data set on Stomach [7]. For the same compound, the Drug uptake in the data set with Large intestine [8] is given as 1.04 % ID/g; in the data set with Large intestine [9], “Not Active”; in the data set on Liver [10] it was 0.23 % ID/g; in the data set with Liver [12], “Not Active”; with Kidney [16], “Not Active”; in the data set on Small intestine [19], “Not Active”. Besides, the Drug uptake in the data set on Lung [20] came out at 0.45 % ID/g. The remaining at 3 h in [2] turned out to be 86%. The tissue uptake at 0.5 h in data set [5] came to 0.25 %ID/g. For the same compound, the remaining at 4 h in data set [11] amounted to 84%. For the same compound, in the data set on Rattus norvegicus, the Ratio is recorded as 2.69. Moreover, the logP in data set [13] is 1.46. For the same compound, the Kp at 0.5 h in data set [14] is 0.96. The remaining at 24 h in [15] was determined as 83%. The tissue uptake at 1 h in [17] was determined as 0.23 %ID/g. In addition, the remaining at 2 h in [18] is 87%.
